Data on two compounds can be found in patent publication US10705094B2, “TNF receptor signaling modulator assay” (UCB Biopharma SRL, priority 2015, dated 2020).

In assay [1] the test system is TNFα-induced IL-8 production. Kind of assay: Inhibition of TNFα-induced IL-8 production in human monocytes. It is filed as cell-based. Particulars: Monocyte, 18 h. As to the method: Venous blood from healthy donors was collected by venupuncture into sodium/heparin containing tubes (BD Biosciences). Peripheral blood mononuclear cells (PBMC) were isolated by density gradient centrifugation with Ficoll Paque (Amersham Biosciences). Briefly, 10 mL of blood was diluted 1:1 (v/v) with RPMI 1640 (Gibco) and carefully layered onto 20 mL Ficoll Paque. Cells were spun down for 30 minutes (min) at 470 g, the PBMC collected, washed once in RPMI 1640 and any remaining contaminating erythrocytes lysed in erythrocyte lysis buffer (1 g/L KHCO3, 8.3 g/L NH4Cl, 0.0372 g/L EDTA). Isolation of monocytes from the PBMC was performed using CD14+ Magnetic MicroBeads (Miltenyi Biotec) according to the manufacturer's instructions. Briefly, PBMC were resuspended in Dulbecco's modified Eagle's medium containing 5% BSA (Sigma) and 2 mM EDTA (Sigma) at 1×10^7 cells/ml. 25 μL of CD14 MicroBeads per 10^7 total cells were incubated for 15 min at room temperature. The magnetic separation was performed using a LS column (Miltenyi Biotec). […]
Human IL-8 was measured in the cell culture supernatants using enzyme-linked immunosorbent assay (ELISA) kits from R&D Systems Ltd. according to the manufacturer's instructions. […] Plates were read at a wavelength of 630 nm with correction at 470 nm.

Assay [2] concerns TNFα stimulated neutrophil recruitment into the peritoneal cavity. Kind of assay: Neutrophil recruitment in mice, compound given orally before i.p. hTNFα. It is filed as in vivo, Balb/c mice. As to the method:
In a further experiment, mice were treated with hTNFα ([…]) and the compound of formula (1) was administered orally (p.o.).
The compound of formula (1) was made into a suspension in 1% methylcellulose vehicle using a covaris machine.
An anti-human TNFα monoclonal antibody (anti-hTNFα, UCB) was also utilised as a positive control in this study.
Ten male Balb/c mice were used per group except in the group that received anti-hTNFα for which 4 mice were used.
All mice were killed by cervical dislocation two hours post-injection of hTNFα (t=2 h) and the peritoneal cavity was lavaged and neutrophil numbers measured as described above.

For assay [3], the system named is activation of NF-κB by TNFα. The experiment in a line: HEK-293 NF-κB SEAP reporter gene assay, TNFα stimulus. It is filed as cell-based. Particulars: Homo sapiens, HEK293; HEK-293 reporter cells, TNFα 0.5 ng/ml. The method, then: Stimulation of HEK-293 cells by TNF-alpha leads to activation of the NF-kB pathway. The reporter cell line used to determine TNF alpha activity was purchased from Invivogen. HEK-Blue™ CD40L, is a stable transfectant expressing SEAP (secreted alkaline phosphatase) under the control of the IFN-beta minimal promoter fused to 5 NF-kB binding sites. Secretion of SEAP by these cells is stimulated in a concentration dependent manner by TNF-alpha (0.5 ng/ml), IL-1-beta (0.5 ng/ml) and an activating anti-human TNFR1 antibody (300 ng/ml).
Compounds were diluted from 10 mM DMSO stocks (final assay concentration 0.3%) to generate a 10 point 3 fold serial dilution curve (30,000 nM to 2 nM final concentration). They were mixed with stimulating ligand for 1 hour in a 384 well microtitre plate. […] SEAP activity was determined in the supernatant using the colorimetric substrate Quanti-Blue™ (Invivogen).
Percentage inhibitions for compound dilutions were calculated between a DMSO control and maximum inhibition (by excess control compound) and an IC50 calculated using xlfit (4 parameter logistic model) in Activity Base. […]
C87 was preincubated with TNFα for 1 hour prior to the addition to HEK-293 cells stably transfected with SEAP under the control of NFκB. […] The assay was incubated overnight before inhibition was measured compared to 100% blocking by a control compound. […]
A general note: A reporter such as luciferase makes a cellular process visible.

In general, IC50 refers to the concentration that inhibits the measured activity by half. Read a low IC50 as greater potency in that assay.

Consider `Cc1ccc(C)c(Cn2c(C(O)c3ccncc3)nc3ccccc32)c1` (stereo not shown) [Compound (1), [1-(2,5-Dimethylbenzyl)-1H-benzimidazol-2-yl](pyridin-4-yl)methanol], for which the IC50 in assay [1] was found to be 454 nM. Also, the “reduction of TNFα stimulated neutrophil recruitment into the peritoneal cavity” value in assay [2] (30 mg/kg p.o. 30 minutes before hTNFα 0.03 μg/kg i.p.) is 49%; in assay [2] (100 mg/kg p.o. 30 minutes before hTNFα 0.03 μg/kg i.p.), 79%.
In assay [3], `Cc1ccc(C)c(Cn2c(C(O)c3ccncc3)nc3ccc(-c4cnn(C)c4)cc32)c1` (stereo not shown) [Compound (2), [1-(2,5-Dimethylbenzyl)-6-(1-methyl-1H-pyrazol-4-yl)-1H-benzimidazol-2-yl](pyridin-4-yl)methanol] displayed an IC50 of 113 nM. That is a sub-micromolar value.
